Measured values taken from PubChem BioAssay (NCI).
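Growth conditions: 96-well plates. Treatment: test compound, 48 hours, 5 concentrations. Analysis: linear interpolation between bracketing concentrations; unreached endpoints set to highest concentration. The concentration for 50% growth inhibition is given as GI50. TGI marks complete inhibition of growth.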

Columns and labels:
Assay in all cases: NCI tumour cell line growth inhibition, 48 h
[1] = test system: OVCAR-5 ovarian
[2] = test system: UO-31 renal
[3] = test system: HCT-15 colon
[4] = test system: TK-10 renal
[5] = test system: RPMI-8226 leukemia
[6] = test system: IGROV1 ovarian
[7] = test system: HL-60(TB) leukemia
[8] = test system: MOLT-4 leukemia
[9] = test system: T-47D breast
[10] = test system: MCF7 breast

CC[C@@]1(O)C(=O)OCc2c1cc1n(c2=O)Cc2cc3c([N+](=O)[O-])c(O)ccc3nc2-1
GI50 [1]: 0.879 µM
TGI [1]: 11.6 µM
GI50 [2]: 0.303 µM
TGI [2]: 2.3 µM
GI50 [3]: 2.71 µM
TGI [3]: > 100 µM
GI50 [4]: 19.5 µM
TGI [4]: > 85.6 µM
GI50 [5]: 0.848 µM
TGI [5]: 9.39 µM
GI50 [6]: 1.04 µM
TGI [6]: 17.3 µM
GI50 [7]: 0.13 µM
TGI [7]: 1.3 µM
GI50 [8]: 0.0227 µM
TGI [8]: 0.188 µM

CN1CCN2c3ccccc3CC(C#N)(C#N)C2C1 (configuration not stated)
TGI [1]: > 100 µM
TGI [2]: > 100 µM
TGI [3]: > 100 µM
TGI [4]: > 100 µM
TGI [5]: > 100 µM
TGI [6]: > 100 µM
TGI [7]: > 100 µM
TGI [8]: > 100 µM

COc1ccc(C(=O)OC2C(OC3C(O)COC(O[C@H]4C[C@H]5[C@@H]6CC=C7C[C@@H](O)CC[C@]7(C)[C@H]6CC[C@]5(C)[C@H]4[C@H](C)C(=O)CCC(C)C)C3OC(=O)C(C)C)OCC(O)C2O)cc1 (some centres not stated)
GI50 [1]: 0.204 µM
TGI [1]: 5.22 µM
GI50 [2]: 0.0115 µM
TGI [2]: 0.067 µM
GI50 [3]: 0.218 µM
TGI [3]: 3.92 µM
GI50 [4]: 0.411 µM
TGI [4]: 6.24 µM
GI50 [5]: < 0.00275 µM
TGI [5]: 0.01 µM
GI50 [9]: 0.0358 µM
TGI [9]: 3.08 µM
GI50 [6]: 0.0219 µM
TGI [6]: 4.22 µM
GI50 [10]: 0.0136 µM
TGI [10]: 2.99 µM
GI50 [8]: 0.00649 µM
TGI [8]: 0.0192 µM

CN(C(=N)c1ccccc1)c1ccccc1
TGI [2]: > 100 µM
TGI [3]: > 100 µM
TGI [4]: > 100 µM
TGI [5]: > 100 µM
TGI [6]: > 100 µM
TGI [7]: > 100 µM
TGI [8]: > 100 µM

CC(C)(C)c1cc(O)c2c(c1O)C(=O)CCC2
TGI [3]: > 100 µM
TGI [4]: > 100 µM
TGI [5]: 54.1 µM
TGI [6]: > 100 µM
TGI [7]: 43.9 µM
TGI [8]: 53.8 µM

COC(=O)CCC(=O)Nc1cccc(C(F)(F)F)c1
TGI [1]: > 100 µM
TGI [2]: > 100 µM
TGI [3]: > 100 µM
TGI [4]: > 100 µM
TGI [5]: > 100 µM
TGI [6]: > 100 µM
TGI [7]: > 100 µM
TGI [8]: > 100 µM

Cc1ccc2oc(=O)cc(CC(=O)O)c2c1
TGI [1]: > 100 µM
TGI [3]: > 100 µM
TGI [4]: > 100 µM
TGI [5]: > 100 µM
TGI [6]: > 100 µM
TGI [7]: > 100 µM
TGI [8]: > 100 µM

O=C1C[C@@H]2[C@@H](C=CC23CC3)N1O
TGI [1]: > 100 µM
TGI [2]: > 100 µM
TGI [4]: > 100 µM
TGI [5]: > 100 µM
TGI [6]: > 100 µM
TGI [7]: > 100 µM
TGI [8]: > 100 µM

C[C@@]1([C@H](OC(=O)c2cccc3ccccc23)C(N)=O)CO1
GI50 [1]: 3.95 µM
TGI [1]: 24.9 µM
GI50 [2]: 2.25 µM
TGI [2]: 8.8 µM
GI50 [3]: 1.72 µM
TGI [3]: 10.7 µM
GI50 [4]: 3.6 µM
TGI [4]: 14.8 µM
GI50 [5]: 0.668 µM
TGI [5]: 9.04 µM
GI50 [9]: 5.31 µM
TGI [9]: 24.8 µM
GI50 [6]: 0.779 µM
TGI [6]: 3.75 µM
GI50 [10]: 1.24 µM
TGI [10]: > 100 µM
GI50 [8]: 0.187 µM
TGI [8]: > 100 µM

COc1cc(-c2nn(-c3ccc(NC(=O)Nc4ccc(Cl)c(C(F)(F)F)c4)cc3)cc2-c2ccncc2)ccc1Cl
GI50 [1]: 1.94 µM
TGI [1]: 5.68 µM
GI50 [2]: 1.44 µM
TGI [2]: 3.13 µM
GI50 [3]: 1.44 µM
TGI [3]: 3.22 µM
GI50 [4]: 3.06 µM
TGI [4]: 13.2 µM
GI50 [9]: 2.66 µM
TGI [9]: 7.37 µM
GI50 [6]: 2.06 µM
TGI [6]: 6.07 µM
GI50 [10]: 2.51 µM
TGI [10]: 8.28 µM

COc1ccc(NC(=O)COc2ccccc2)c(C(N)=O)c1
GI50 [1]: 7.14 µM
TGI [1]: > 100 µM
GI50 [2]: 6.99 µM
TGI [2]: > 100 µM
GI50 [3]: 0.523 µM
TGI [3]: > 100 µM
GI50 [4]: 18.3 µM
TGI [4]: > 100 µM
GI50 [5]: 1.93 µM
TGI [5]: > 55.2 µM
GI50 [6]: 4.71 µM
TGI [6]: > 100 µM
GI50 [7]: 0.368 µM
TGI [7]: > 100 µM
GI50 [10]: 0.538 µM
TGI [10]: > 100 µM
GI50 [8]: 2.67 µM
TGI [8]: > 100 µM

CCOC(=O)NC(=O)c1cn(CC(=O)NCC(=O)NCC(=O)N2CCN(CCn3c(C)nc(C(N)=O)c3N)CC2)c(=O)[nH]c1=O
TGI [2]: > 100 µM
TGI [3]: > 100 µM
TGI [4]: > 100 µM
TGI [6]: > 100 µM
TGI [7]: > 100 µM
TGI [8]: > 100 µM

Oc1ccccc1/C=N/Nc1nc2ccccc2s1
GI50 [1]: > 100 µM
TGI [1]: > 100 µM
GI50 [2]: 4.86 µM
TGI [2]: > 100 µM
GI50 [3]: 2.17 µM
TGI [3]: > 100 µM
GI50 [4]: 4.79 µM
TGI [4]: > 100 µM
GI50 [5]: 4.7 µM
TGI [5]: > 100 µM
GI50 [9]: 2.11 µM
TGI [9]: > 100 µM
GI50 [6]: 2.77 µM
TGI [6]: > 100 µM
GI50 [10]: 1.16 µM
TGI [10]: > 100 µM
GI50 [8]: 4.4 µM
TGI [8]: > 100 µM

COc1ccc(/C=C(/C(=O)N2CCN(c3ccc(C)cc3)CC2)c2cc(OC)c(OC)c(OC)c2)cc1N
GI50 [1]: 0.715 µM
TGI [1]: > 100 µM
GI50 [2]: 0.242 µM
TGI [2]: > 35.3 µM
GI50 [3]: 0.337 µM
TGI [3]: > 100 µM
GI50 [4]: 4.77 µM
TGI [4]: > 100 µM
GI50 [5]: 0.284 µM
TGI [5]: > 33.7 µM
GI50 [6]: 0.304 µM
TGI [6]: > 100 µM
GI50 [7]: 0.255 µM
TGI [7]: 0.679 µM
GI50 [10]: 0.228 µM
TGI [10]: > 100 µM
GI50 [8]: 0.437 µM
TGI [8]: > 100 µM

NC(N)=NS(=O)(=O)c1ccc(NC(=O)c2cccn3c(=O)c4ccccc4nc23)cc1
TGI [2]: > 100 µM
TGI [4]: > 100 µM
TGI [5]: 65.1 µM
TGI [6]: > 100 µM
TGI [7]: 44.9 µM
TGI [8]: 85.9 µM

CN(Cc1ccccc1)c1ncnc2ccc(Br)cc12
GI50 [1]: 15.3 µM
TGI [1]: 31.3 µM
GI50 [2]: 13.3 µM
TGI [2]: 49.5 µM
GI50 [3]: 14.1 µM
TGI [3]: 32 µM
GI50 [4]: 5.68 µM
TGI [4]: 19.8 µM
GI50 [5]: 3.26 µM
TGI [5]: 13.1 µM
GI50 [9]: 22 µM
TGI [9]: > 100 µM
GI50 [6]: 8.17 µM
TGI [6]: > 100 µM
GI50 [10]: 26.4 µM
TGI [10]: > 100 µM
GI50 [8]: 5.77 µM
TGI [8]: 28.8 µM

CCCCN1C(=O)C2c3[nH]c4ccccc4c3C3CCCCC3C2C1=O (mixture of isomers)
TGI [2]: 47.5 µM
TGI [3]: > 100 µM
TGI [4]: 33.9 µM
TGI [6]: 75.9 µM
TGI [7]: 29.1 µM
TGI [8]: 19.4 µM

C=C(c1ccccc1)[C@@]1(O)CCCC[C@H]1NC(c1ccccc1)c1ccccc1
TGI [1]: 27 µM
TGI [2]: 27.6 µM
TGI [3]: 24.5 µM
TGI [4]: 32.5 µM
TGI [5]: 25.5 µM
TGI [6]: 42.4 µM
TGI [7]: 5.95 µM
TGI [8]: 8.24 µM
